Results: patent US9927437B2, “Treating neurodegenerative disease” (THE BRIGHAM AND WOMEN'S HOSPITAL, INC., priority 2013, dated 2018)
Entries after “also recorded” stand apart in the source; their conditions may differ.

Key:
[1] = tested on: astrocytes; test: Viability assay, astrocytes; format: cell-based, mouse; conditions: 1 h pre-treatment at indicated concentrations, LPS/IFNγ, 6 h after activation
Method: FIGS. 14a-g. B4GALT6 directly controls astrocyte activation. (a) Cultured astrocytes were pre-treated for 1 h with PDMP (25 μM), LacCer (10 μM), both (LacCer+PDMP), or vehicle control (vehicle), followed by activation with LPS/IFNγ for 6 h, or left un-treated (control, Con). mRNA expression was analyzed 6 h following activation. qPCR analysis of the expression of cc/5, csf2, nos2, il6, H2-Aa, and tlr2 presented relative to gapdh. Statistical analysis by one-way ANOVA, followed by Tukey post-hoc analysis. (b, c) Cultured astrocytes were pre-treated for 1 h with LacCer (b) or PDMP (c), at indicated concentrations, followed by activation with LPS/IFNγ, or left un-treated (control, Con). Cell viability was determined 6 h after activation. […] Astrocytes were then pre-treated for 1 h with PDMP, or vehicle control (vehicle), followed by activation with LPS/IFNγ for 6 h, or left un-treated (control, Con). mRNA expression for H2-Aa, Ccl5 and Cxcl10 was determined; expression is presented as fold induction relative to housekeeping gene (Gapdh). […] (f) NF-κB (P65), GAPDH, and Lamin B expression, in cytoplasmic and nuclear fractions analyzed by western blot. The degree of NF-κB translocation to the nucleus was assessed by the ratio between the expression of P65 in nuclear and cytoplasmic fractions following densitometric quantification on four independent experiments (Right panel). […]

[2] = tested on: primary mouse microglia; test: Response of primary microglia to LPS/IFNγ (nCounter); format: cell-based; conditions: absence of astrocytes, LPS/IFNγ 6 h
From the text: FIGS. 5a-m. B4GALT6 in astrocytes regulates the activation of microglia and CNS-infiltrating monocytes. (a) Heatmap depicting mRNA expression, as determined by nCounter Nanostring analysis, in microglia from naïve or EAE NOD mice treated with PDMP or vehicle. Representative data of three independent experiments. Statistical analysis by Student's t-test. (b) qPCR analysis of ccl5, il1b, opn, nos2, cd40, and H2-Aa gene expression relative to Gapdh. (c, d) Mean normalized expression of genes associated with M1- or M2-phenotype in microglia (Table 3) (c) and Ly6C^high monocytes (d). Statistical analysis by Student's t-test. (e-h) primary microglia were pre-treated with PDMP, LacCer, or vehicle, followed by activation with LPS/IFNγ for 6 h or left un-treated (control) as in (FIG. 3a). mRNA expression was determined by nCounter Nanostring analysis (e, g), and microglial viability was determined (f, h). Representative data of five independent experiments. […] RNA was harvested from microglia treated in the absence [MG (pure)] or presence [MG (mixed)] of astrocytes and gene expression was analyzed by qPCR for the expression ccl2, ccl5 and nos2 relative to gapdh. […] Microglia were isolated as in (i), and microglial-nos2 expression was determined by qRT relative to gapdh and presented as in (i). […]

[3] = tested on: Ly6C^high monocytes; test: Viability assay, monocytes; format: cell-based, mouse; conditions: 1 h pre-treatment, 3 h

Molecule	astrocyte viability [1]	response of cultured primary mouse microglia to LPS/IFNγ [2]	viability of purified Ly6C^high monocytes [3]
lactosylceramide [LacCer]	did not affect astrocyte viability; also recorded: no significant cells death	neither the viability nor the response of cultured primary mouse microglia to LPS/IFNγ was affected	did not affect
CCCCCCCCCC(=O)N[C@H](CN1CCOCC1)[C@H](O)c1ccccc1 [PDMP, D-threo-1-phenyl-2-decanoylamino-3-morpholino-1-propanol]	did not affect astrocyte viability; also recorded: no significant cells death	neither the viability nor the response of cultured primary mouse microglia to LPS/IFNγ was affected	did not affect
